Test results taken from US20190062305A1, “PYRIDYL OR PYRAZINYL COMPOUNDS CARRYING A METHYL-BOUND ALPHA-AMINO ACID AMIDE GROUP” (ABBVIE DEUTSCHLAND GMBH & CO. KG, priority 2015, published 2019).
Where a name gives a salt, the structure may show the parent alone. Read-outs that look alike come from different tables or passages of the source.

What was measured:
5-HT2C receptor = target: T1, 5-HT2C receptor (Homo sapiens, UniProt P28335); test: Human 5-HT2C functional assay (beta-arrestin2 recruitment, U2OS_HTR2C_β-Arrestin cells); assay type: cell-based; settings: for EC50: beta-arrestin2 recruitment, U2OS_HTR2C_β-Arrestin cells, 1.5 h incubation, read-out: EC50 5-HT2C (potency in functional assay); for Emax: relative efficacy vs response to 10 μM 5-HT or maximal 5-HT effect (100%)
T1 construct: host or cells: U2OS
T1 sequence (P28335 33-458): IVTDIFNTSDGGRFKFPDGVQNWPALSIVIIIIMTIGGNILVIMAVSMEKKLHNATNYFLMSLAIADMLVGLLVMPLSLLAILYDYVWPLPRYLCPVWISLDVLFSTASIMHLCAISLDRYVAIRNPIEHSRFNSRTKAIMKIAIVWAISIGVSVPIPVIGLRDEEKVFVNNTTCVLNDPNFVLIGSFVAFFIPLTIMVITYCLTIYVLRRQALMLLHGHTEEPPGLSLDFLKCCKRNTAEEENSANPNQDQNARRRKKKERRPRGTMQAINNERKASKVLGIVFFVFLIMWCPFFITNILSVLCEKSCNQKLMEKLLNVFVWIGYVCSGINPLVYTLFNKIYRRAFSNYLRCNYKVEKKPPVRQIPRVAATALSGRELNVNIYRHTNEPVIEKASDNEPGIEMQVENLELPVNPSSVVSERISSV
T1 sequence (P32121 whole entry partner): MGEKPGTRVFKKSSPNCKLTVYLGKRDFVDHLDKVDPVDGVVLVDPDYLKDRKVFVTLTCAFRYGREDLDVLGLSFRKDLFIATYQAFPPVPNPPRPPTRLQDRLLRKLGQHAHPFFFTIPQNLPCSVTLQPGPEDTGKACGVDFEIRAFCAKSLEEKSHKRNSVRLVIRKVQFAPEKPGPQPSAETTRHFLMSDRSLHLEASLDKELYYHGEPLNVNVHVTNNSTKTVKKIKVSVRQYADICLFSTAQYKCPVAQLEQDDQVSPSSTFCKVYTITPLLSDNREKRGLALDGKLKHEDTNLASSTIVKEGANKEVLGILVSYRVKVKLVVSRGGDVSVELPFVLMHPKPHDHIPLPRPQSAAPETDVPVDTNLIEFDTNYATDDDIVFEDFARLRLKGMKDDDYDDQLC
Summary of the method: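 U2OS cells expressing HTR2C with β-galactosidase complementation, switched to 1% serum medium 24 h post-plating, were treated next day with compound for 1.5 h; chemiluminescence read. Response expressed as % of 10 µM 5-HT or maximal 5-HT effect; EC50 from 4-parameter variable-slope fit.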

[1] = Metabolic stability in human liver microsomes, unbound intrinsic clearance (Cl int/fu mic); assay type: in vitro ADME; settings: pH 7.4, human liver microsomes 0.25 mg/mL, 0.5 μM compound, NADPH, read-out: Cl int, mic unb. (h) [l/h/kg] (unbound intrinsic clearance, human)
Summary of the method: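 Compound (0.5 µM) was incubated with human liver microsomes (0.25 mg/mL) in pH 7.4 phosphate buffer at 37 °C with 1.0 mM NADPH, sampling from 0–30 min. Depletion was followed by LC-MS/MS, and CLint was derived from first-order t1/2 per mg protein. Microsomal unbound fraction came from 4 h equilibrium dialysis at 37 °C, giving CLint/fu mic.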

Compound | EC50 (5-HT2C receptor) [nM] | Emax (5-HT2C receptor) [%] | CLint scaled at 0.5 μM ([1]; human, liver microsomes) [L/h/kg] | CLint scaled at 0.5 μM [1] [L/h/kg]
COc1nc(N(C)CCc2ccccc2)c(F)cc1CNC(=O)[C@@H]1CCCN1 [Example 137, (2S)—N-[[5-Fluoro-2-methoxy-6-[methyl(phenethyl)amino]-3-pyridyl]methyl]-pyrrolidine-2-carboxamide Hydrochloride] | 200 to 1000 | > 70 | 50 to 500 | –
COc1nc(OC2CCC(CF)CC2)c(F)cc1CNC(=O)[C@@H]1CCCN1 (stereo partly drawn) [Example 75, (2S)—N-[[5-fluoro-6-[4-(fluoromethyl)cyclohexoxy]-2-methoxy-3-pyridyl]methyl]-pyrrolidine-2-carboxamide; 2,2,2-trifluoroacetic Acid] | < 20 | > 70 | 5 to 50 | –
COc1nc(NC2CCCCC2)c(F)cc1CNC(=O)[C@@H]1CCCN1 [Example 131, (2S)—N-[[6-(Cyclohexylamino)-5-fluoro-2-methoxy-3-pyridyl]methyl]pyrrolidine-2-carboxamide] | < 20 | > 70 | 5 to 50 | –
COc1nc(N2CCC(C3CCC(C(F)(F)F)CC3)CC2)c(F)cc1CNC(=O)[C@@H]1CCCN1 (stereo partly drawn) [Example 180, (2S)—N-[[5-Fluoro-2-methoxy-6-[4-[4-(trifluoromethyl)cyclohexyl]-1-piperidyl]-3-pyridyl]methyl]pyrrolidine-2-carboxamide; 2,2,2-trifluoroacetic Acid] | 200 to 1000 | > 70 | 50 to 500 | –
COc1nc(OC2CCC(C(F)(F)F)CC2)c(F)cc1CNC(=O)[C@@H]1C[C@@H](C)CN1 (stereo partly drawn) [Example 60, (2S,4R)—N-[[5-Fluoro-2-methoxy-6-[4-(trifluoromethyl)cyclohexoxy]-3-pyridyl]methyl]-4-methyl-pyrrolidine-2-carboxamide Hydrochloride] | 20 to 200 | 50 to 70 | 50 to 500 | –
COc1nc(OCC2CCC(C(F)(F)F)CC2)c(F)cc1CNC(=O)[C@@H]1CCCN1C (stereo partly drawn) [Example 15, (2S)—N-[[5-Fluoro-2-methoxy-6-[[4-(trifluoromethyl)cyclohexyl]methoxy]-3-pyridyl]methyl]-1-methyl-pyrrolidine-2-carboxamide] | < 20 | > 70 | 50 to 500 | –
COc1nc(C2CCCOC2)c(F)cc1CNC(=O)[C@@H]1CCCN1 (stereo partly drawn) [Example 158, (2S)—N-[(5-Fluoro-2-methoxy-6-tetrahydropyran-3-yl-3-pyridyl)methyl]-pyrrolidine-2-carboxamide Hydrochloride] | 20 to 200 | > 70 | < 5 | –
COc1nc(N2CC(Oc3ccc(Cl)cc3)C2)c(F)cc1CNC(=O)[C@@H]1CCCN1 [Example 151, (2S)—N-[[6-[3-(4-Chlorophenoxy)azetidin-1-yl]-5-fluoro-2-methoxy-3-pyridyl]methyl]pyrrolidine-2-carboxamide; 2,2,2-trifluoroacetic Acid] | 200 to 1000 | > 70 | 50 to 500 | –
COc1nc(OCC(F)(F)C(F)(F)C(F)(F)F)c(F)cc1CNC(=O)[C@@H]1CCCN1 [Example 110, (2S)—N-[[5-Fluoro-6-(2,2,3,3,4,4,4-heptafluorobutoxy)-2-methoxy-3-pyridyl]-methyl]pyrrolidine-2-carboxamide Hydrochloride] | < 20 | > 70 | – | 5 to 50
COc1nc(Cc2ccccc2)c(F)cc1CNC(=O)[C@@H]1CCCN1 [Example 145, (2S)—N-[(6-Benzyl-5-fluoro-2-methoxy-3-pyridyl)methyl]pyrrolidine-2-carboxamide] | < 20 | > 70 | < 5 | –
COc1nc(N2CCCCC2)c(F)cc1CNC(=O)[C@@H]1CCCN1 [Example 128, (2S)—N-[[5-Fluoro-2-methoxy-6-(1-piperidyl)-3-pyridyl]methyl]pyrrolidine-2-carboxamide] | 20 to 200 | > 70 | < 5 | –
COc1nc(OCC(C)(C(F)(F)F)C(F)(F)F)c(F)cc1CNC(=O)[C@@H]1CCCN1 [Example 109, (2S)—N-[[5-Fluoro-2-methoxy-6-[3,3,3-trifluoro-2-methyl-2-(trifluoromethyl)propoxy]-3-pyridyl]methyl]pyrrolidine-2-carboxamide Hydrochloride] | < 20 | > 70 | 50 to 500 | –
COc1nc(OC2CCC(C(F)(F)F)CC2)c(F)cc1CNC(=O)[C@@H]1C[C@@H](F)CN1 (stereo partly drawn) [Example 35, (2S,4R)-4-Fluoro-N-[[5-fluoro-2-methoxy-6-[4-(trifluoromethyl)cyclohexoxy]-3-pyridyl]methyl]pyrrolidine-2-carboxamide; Fumaric Acid] | < 20 | > 70 | < 5 | –
COc1nc(N2CCC(C(F)(F)F)C2)c(F)cc1CNC(=O)[C@@H]1CCCN1 (stereo partly drawn) [Example 163, (2S)—N-[[5-Fluoro-2-methoxy-6-[3-(trifluoromethyl)pyrrolidin-1-yl]-3-pyridyl]methyl]pyrrolidine-2-carboxamide; 2,2,2-trifluoroacetic Acid] | < 20 | > 70 | 5 to 50 | –
COc1nc(NCc2ccccc2)c(F)cc1CNC(=O)[C@@H]1CCCN1 [Example 170, (2S)—N-[[6-(Benzylamino)-5-fluoro-2-methoxy-3-pyridyl]methyl]pyrrolidine-2-carboxamide; 2,2,2-trifluoroacetic Acid] | 20 to 200 | > 70 | < 5 | –
COc1nc(O[C@H]2CCC(F)(F)C2)c(F)cc1CNC(=O)[C@@H]1CCCN1C [Example 26, (2S)—N-[[6-[(1S)-3,3-Difluorocyclopentoxy]-5-fluoro-2-methoxy-3-pyridyl]methyl]-1-methyl-pyrrolidine-2-carboxamide Hydrochloride] | < 20 | > 70 | < 5 | –
COc1nc(C2CC2C(F)(F)F)c(F)cc1CNC(=O)[C@@H]1CCCN1 (stereo partly drawn) [Example 139, (2S)—N-[[5-fluoro-2-methoxy-6-[2-(trifluoromethyl)cyclopropyl]-3-pyridyl]methyl]pyrrolidine-2-carboxamide; 2,2,2-trifluoroacetic Acid] | 200 to 1000 | 30 to 50 | 5 to 50 | –
COc1nc(N2CCCC(F)C2)c(F)cc1CNC(=O)[C@@H]1CCCN1 (stereo partly drawn) [Example 161, (2S)—N-[[5-Fluoro-6-(3-fluoro-1-piperidyl)-2-methoxy-3-pyridyl]methyl]-pyrrolidine-2-carboxamide; 2,2,2-trifluoroacetic Acid] | 20 to 200 | 50 to 70 | < 5 | –
COc1nc(OC2CC(F)(F)C2(F)F)c(F)cc1CNC(=O)[C@@H]1CCCN1 (stereo partly drawn) [Example 112, (2S)—N-[[5-Fluoro-2-methoxy-6-(2,2,3,3-tetrafluorocyclobutoxy)-3-pyridyl]methyl]pyrrolidine-2-carboxamide; 2,2,2-trifluoroacetic Acid] | < 20 | > 70 | < 5 | –
COc1nc(OCC(C)CC(F)(F)F)c(F)cc1CNC(=O)[C@@H]1CCCN1 (stereo partly drawn) [Example 49, (2S)—N-[[5-Fluoro-2-methoxy-6-(4,4,4-trifluoro-2-methyl-butoxy)-3-pyridyl]-methyl]pyrrolidine-2-carboxamide; Succinic Acid] | < 20 | > 70 | 5 to 50 | –
COc1nc(N(C)Cc2ccccc2)c(F)cc1CNC(=O)[C@@H]1CCCN1 [Example 179, (2S)—N-[[6-[N-Benzyl-N-methyl-amino]-5-fluoro-2-methoxy-3-pyridyl]methyl]-pyrrolidine-2-carboxamide; 2,2,2-trifluoroacetic Acid] | 200 to 1000 | 50 to 70 | 5 to 50 | –
COc1nc(OC[C@H]2CCC(F)(F)C2)c(F)cc1CNC(=O)[C@@H]1CCCN1C [Example 17, (2S)—N-[[6-[[(1S)-3,3-Difluorocyclopentyl]methoxy]-5-fluoro-2-methoxy-3-pyridyl]methyl]-1-methyl-pyrrolidine-2-carboxamide; Fumaric Acid] | 20 to 200 | 50 to 70 | 5 to 50 | –
COc1nc(C2CC2)c(F)cc1CNC(=O)[C@@H]1CCCN1 [Example 127, (2S)—N-[(6-Cyclopropyl-5-fluoro-2-methoxy-3-pyridyl)methyl]pyrrolidine-2-carboxamide; 2,2,2-trifluoroacetic Acid] | 200 to 1000 | > 70 | 5 to 50 | –
COc1nc(OCC(F)(F)C(F)F)c(F)cc1CN(C)C(=O)[C@@H]1CCCN1C [Example 102, (2S)—N-[[5-Fluoro-2-methoxy-6-(2,2,3,3-tetrafluoropropoxy)-3-pyridyl]methyl]-N,1-dimethyl-pyrrolidine-2-carboxamide Hydrochloride] | 200 to 1000 | 50 to 70 | < 5 | –
COc1nc(N2CC(F)(F)C(F)(F)C(F)(F)C2)c(F)cc1CNC(=O)[C@@H]1CCCN1 [Example 182, (2S)—N-[[5-Fluoro-6-(3,3,4,4,5,5-hexafluoro-1-piperidyl)-2-methoxy-3-pyridyl]-methyl]pyrrolidine-2-carboxamide Hydrochloride] | < 20 | > 70 | – | 5 to 50
